Here are results for 16 compounds from ChEMBL document CHEMBL1122731, “Potential synthetic codeine substitutes: (-)-3-O-aryl-N-methylmorphinans” (J Med Chem, 1984).

What is called ED50 is the midpoint of the dose-response relation. A high value points to weaker potency.

Holding throughout (format): functional
Assay [1] concerns Mus musculus. Put plainly: Compound was tested for analgesic activity by tail-flick test after subcutaneous administration in mice. The conditions noted are these: sc. (Thermal pain tests record how soon the animal reacts.)
Assay [2] relates to Mus musculus. Put plainly: Compound was tested for analgesic activity by writhing test after subcutaneous administration in mice. Particulars: sc.
The subject of assay [3] is Mus musculus. The assay is described as follows: Compound was tested for analgesic activity by tail-flick test after peroral administration in mice. Particulars: po.
The subject of assay [4] is Mus musculus. The assay is described as follows: Compound was tested for analgesic activity by writhing test after peroral administration in mice. The conditions noted are these: po.

`CN1CC[C@]23CCCC[C@H]2[C@H]1Cc1ccc(Oc2cccc(F)c2)cc13.O.O=C(O)C(O)C(O)C(=O)O`: the ED50 worked out at 71 mg/kg in the assay with Mus musculus [1] and 1.85 mg/kg in the assay with Mus musculus [2].

As to `CCO.CN1CC[C@]23CCCC[C@H]2[C@H]1Cc1ccc(Oc2cccc(O)c2)cc13.O=C(O)C(O)C(O)C(=O)O`, the ED50 in the assay with Mus musculus [1] was 80.1 mg/kg; with Mus musculus [2], 9 mg/kg.

In the case of `CN1CC[C@]23CCCC[C@H]2[C@H]1Cc1ccc(Oc2ccccc2F)cc13.O=C(O)C(=O)O`, the ED50 in the assay with Mus musculus [1] was found to be 23.3 mg/kg; in the assay on Mus musculus [2] it was 3 mg/kg.

As to `COc1ccccc1Oc1ccc2c(c1)[C@@]13CCCC[C@H]1[C@@H](C2)N(C)CC3`, the ED50 in the assay with Mus musculus [1] came out at 24.4 mg/kg; with Mus musculus [2] it was 0.49 mg/kg.

As for `CCO.CN1CC[C@]23CCCC[C@H]2[C@H]1Cc1ccc(Oc2ccccc2O)cc13.O=C(O)C(O)C(O)C(=O)O`, the values for the ED50 in the assay with Mus musculus [1] and in the assay on Mus musculus [2] were 11.4 mg/kg and 1.8 mg/kg, respectively.

In the case of `COc1cccc(Oc2ccc3c(c2)[C@@]24CCCC[C@H]2[C@@H](C3)N(C)CC4)c1`, the median effective dose (ED50) came out at 39.7 mg/kg in the assay on Mus musculus [1] and 2.5 mg/kg in the assay with Mus musculus [2].

For the compound `COc1ccc(Oc2ccc3c(c2)[C@@]24CCCC[C@H]2[C@@H](C3)N(C)CC4)cc1`, the ED50 was determined as 25 mg/kg in the assay with Mus musculus [1] and 2.1 mg/kg in the assay with Mus musculus [2].

Consider `CN1CC[C@]23CCCC[C@H]2[C@H]1Cc1ccc(Oc2ccccc2)cc13.O=C(O)C(O)C(O)C(=O)O`, for which the ED50 with Mus musculus [3] is 51.7 mg/kg; in the assay on Mus musculus [1], 19.7 mg/kg; in the assay on Mus musculus [4] it was 2.3 mg/kg; in the assay on Mus musculus [2], 1.25 mg/kg.

Turning to `Br.COc1ccc2c(c1)[C@@]13CCCCC1[C@@H](C2)N(C)CC3` (some centres not stated) [LEVOMETHORPHAN HYDROBROMIDE], the ED50 with Mus musculus [3] was 5.27 mg/kg; in the assay with Mus musculus [4], 1.5 mg/kg; in the assay on Mus musculus [2] it was 0.64 mg/kg.

As to `CN1CC[C@]23CCCC[C@H]2[C@H]1Cc1ccc(Oc2ccccn2)cc13.O=C(O)C(O)C(O)C(=O)O`, the ED50 with Mus musculus [1] is 10.1 mg/kg; in the assay on Mus musculus [2], 1.1 mg/kg.

In the case of `CN1CC[C@]23CCCC[C@H]2[C@H]1Cc1ccc(Oc2ccc(O)cc2)cc13.Cl`, the ED50 with Mus musculus [1] was 6.69 mg/kg; in the assay on Mus musculus [2] it was 1.3 mg/kg.

As to `CN1CC[C@]23CCCC[C@H]2[C@H]1Cc1ccc(O)cc13.O=C(O)C(O)C(O)C(=O)O`, the ED50 in the assay with Mus musculus [3] was 8.5 mg/kg; with Mus musculus [1] it was 1.21 mg/kg; in the assay on Mus musculus [4], 1.4 mg/kg; in the assay on Mus musculus [2], 0.11 mg/kg.

`CN1CC[C@]23c4c5ccc(O)c4O[C@H]2[C@@H](O)C=C[C@H]3[C@H]1C5.CN1CC[C@]23c4c5ccc(O)c4O[C@H]2[C@@H](O)C=C[C@H]3[C@H]1C5.O=S(=O)(O)O`: the ED50 was found to be 31.2 mg/kg in the assay with Mus musculus [3] and 0.46 mg/kg in the assay with Mus musculus [2].

Compound `Cc1ccc(Oc2ccc3c(c2)[C@@]24CCCC[C@H]2[C@@H](C3)N(C)CC4)cc1.Cl` gave an ED50 with Mus musculus [2] of 23 mg/kg.

In the case of `COc1ccc2c3c1O[C@H]1[C@@H](O)C=C[C@H]4[C@@H](C2)N(C)CC[C@@]341.COc1ccc2c3c1O[C@H]1[C@@H](O)C=C[C@H]4[C@@H](C2)N(C)CC[C@@]341.O.O=P(O)(O)O.O=P(O)(O)O` [CODEINE PHOSPHATE], the results for the ED50 in the assay with Mus musculus [3], with Mus musculus [4] and in the assay with Mus musculus [2] were 119 mg/kg, 24 mg/kg and 2.3 mg/kg, respectively.

Regarding `CN1CC[C@]23CCCC[C@H]2[C@H]1Cc1ccc(Oc2ccc(F)cc2)cc13`, the values for the ED50 in the assay with Mus musculus [1] and in the assay on Mus musculus [2] were 37.3 mg/kg and 1 mg/kg, respectively.
